Laboratory results reported in patent US7232837B2, “Stereoisomers with high affinity for adrenergic receptors” (McNeil-PPC, Inc., priority 1999, dated 2007).
Structures can show the parent of a compound that is named as a salt.

Assays:
Swiss-Webster mice = assay: Locomotor stimulant and depressant effects in mice; details: i.p.
Protocol: Male Swiss-Webster mice (HSD ND4, Harlan Sprague Dawley, Houston, Tex.) aged 2–3 months were used in these studies. Each dose group consisted of 8 mice. The mice were housed 2 to 4 per cage in 30.4×22.9×15.2 cm clear polycarbonate cages with food and water available ad libitum for at least one week prior to locomotor activity testing. The colony was maintained at 23±1° C., on a normal light-dark cycle beginning at 0700 hr. All testing took place during the light portion of the light-dark cycle.
Horizontal (forward movement) locomotor activity was measured using a standardized, optical activity monitoring system [Model KXYZCM (16), Omnitech Electronics, Columbus, Ohio]. Activity was monitored in forty 40.5×40.5×30.5 cm clear acrylic chambers that where housed in sets of two within larger sound-attenuating chambers. A panel of 16 infrared beams and corresponding photodetectors were spaced 2 cm apart along the sides and 2.4 cm above the floor of each activity chamber. A 7.5-W incandescent light above each chamber provided dim illumination via a rheostat set to 20% of full scale. Fans provided an 80-dB ambient noise level within the chamber.
Triprolidine HCl was obtained from Research Biochemicals International, (Natick, Mass.).
Locomotor stimulant effects. […] (+)-Amphetamine was used as a positive control. The total horizontal distance traversed (cm) was recorded at 10 minute intervals for a 2-hour session. Separate groups of 8 mice were assigned to each dose or saline group, and dose-effect testing continued for each compound until maximal stimulant or depressant effects could be estimated. A separate control group was tested along with each compound.
Using TableCurve 2D v2.03 (Jandel Scientific), the mean average total distance traversed (cm/10 min) for that period was fit to a 3-parameter logistic peak function of log10 dose (with the constant set to the mean of the saline group), and the maximum effect estimated from the resulting curve. The […] (dose producing ½ maximal stimulant activity) was estimated from a linear regression against log10 dose of the ascending portion of the dose-effect curve. The stimulant efficacy was the peak effect of the compound (cm/10 min) as estimated from the logistic peak function, minus the mean control distance traveled (cm/10 min), and was expressed for each stimulant compound as a ratio to the stimulant efficacy determined for (+)-amphetamine.
The mean average total distance traversed (cm/10 min) for that period were fit to a linear function of log10 dose of the descending portion of the dose-effect curve. […] Efficacy was the ratio of maximal depressant effect to maximum possible depression for each compound (mean average total distance of the control group minus the lowest mean total distance, expressed as a ratio to the control group total distance).
Statistical analysis. Time course data for each compound were considered in 2-way analyses of variance with dose as a between-group and time as a within-group factor. The dose-effect data were considered in 1-way analyses of variance, and planned individual comparisons were conduced between each dose and the saline control group. Interaction studies were considered in 2-way analyses of variance, with Pretreatment and Test dose as the factors.

α2 adrenergic receptors = assay: Alpha-2 binding, 125iodoclonidine, canine brain (frontal cortex) membranes; design: species or system canine (mongrel dogs); details: α2-displacement assay, check for imidazoline receptors
Protocol: BRAIN ALPHA-2 RECEPTORS: Membranes of mongrel dogs were harvested from the canine frontal cortex and prepared as described for lung except that the final membrane protein concentration was adjusted to 0.5 mg/ml.
ALPHA-2 BINDING ^125IODOCLONIDINE. […] Nonspecific binding was determined in separate incubations in the presence of 10 μM phentolamine. The final concentration of p-iodoclonidine was 44–45 pM in competition studies and between 50 pM and 10 nM in saturation experiments. Bound and free p-^125iodoclonidine were separated and the bound quantified as described above for the ICYP assays. […] BETA-2 BINDING, ^125IODOCYANOPINDOLOL (^125ICYP). […] Nonspecific binding was determined in separate incubations in the presence of 2 μM d,l-propranolol. Each experimental point was determined in triplicate. […] Incubations were terminated as described above for the α1 assays. Filters were placed into polyethylene tubes and the bound ligand was determined by gamma spectrometry (Sano et al., 1993).
All data were analyzed with the aid of microcomputer nonlinear curve fitting programs (PRISM 2.0, Graphpad Software, San Diego Calif.).
The receptors resident in each of the three membrane preparations were evaluated by standard saturation analysis following the addition of increasing concentrations of the appropriate radioligand. […] The radio ligand added for subsequent α2-displacement assays was adjusted to evaluate only the high affinity receptor. Contributions from p-iodoclonidine binding to imidazoline receptors in the α2-displacement assay were evaluated with epinephrine.
The variable, I, is the concentration of tracer added and the variable, Kd, is the equilibrium dissociation constant empirically determined for this receptor population.

[1] = test system: New Zealand white rabbits; assay: Pupil diameter / mydriasis after topical application to the rabbit eye; type: in vivo; design: key to Mydriatic Responses, UNTREATED EYE: 0 = No change; + = 0–2 mm change; ++ = 2–4 mm change; details: for Pupil Diameter: mean ± S.E.
Protocol: (§1) These diastereomers were administered topically as either 1% or 2% solutions in buffered saline. Pupillary diameter and IOP were measured in all animals over a six hour time period during the day to minimize diurnal variations in IOP and pupil diameter.
(§2) The experiments were performed on adult male New Zealand white rabbits weighing 3.0–6.0 kg. All rabbits were caged individually and maintained on a 12 hr/12 hr light/dark schedule with free access to food and water. All animal procedures were in conformity with the ARVO Resolution on the Use and Care of Animals in Research. All treated rabbits had served as controls by having received a saline treatment on a different day.
(§3) Only one eye received drug treatment. The contralateral eye served as a control. Saline (or PBS) and drug treated rabbits were treated and observed simultaneously. A single dose was given at time zero and IOP and pupil diameter measured at −1.0, −0.5, 0.5, 1, 3 and 5 hrs post-treatment.
Pupil diameter was measured visually at the point of the greatest horizontal diameter with a transparent millimeter ruler. All measurements were made under the identical ambient lighting conditions.
(§4) Mean and Standard Error values were used to construct time-response and dose-response curves for the treated and contralateral eye of research rabbits. The data were analyzed statistically by an analysis of variance and a Bonferoni's test for significance. P<0.05 was the accepted level of significance.

[2] = test system: New Zealand white rabbits; assay: Intraocular pressure (IOP) after topical application to the rabbit eye; type: in vivo; details: for IOP: mean ± S.E.
Protocol: as §1, §2, §3
IOP measurements were recorded with an Alcon Applanation Pneumotonograph (Surgical Products Division, Alcon Laboratories, Inc., Ft. Worth, Tex.) in rabbits placed in Lucite restraining cages. Initial topical application of a two drop 0.5% proparacaine HCl (Ophthetic®, Allergan Pharmaceuticals, Inc.) was performed on each rabbit.
as §4

[3] = 1% topical, drug treated eye (T), 0.5 hr
[4] = 1% topical, drug treated eye (T), 1 hr
[5] = 1% topical, drug treated eye (T), 3 hr
[6] = 1% topical, drug treated eye (T), 5 hr
[7] = 1% topical, drug treated eye (T), −0.5 hr (pre-treatment)
[8] = 1% topical, drug treated eye (T), −1 hr (pre-treatment)
[9] = 1% topical, untreated contralateral eye (U), 0.5 hr
[10] = 1% topical, untreated contralateral eye (U), 1 hr
[11] = 1% topical, untreated contralateral eye (U), 3 hr
[12] = 1% topical, untreated contralateral eye (U), 5 hr
[13] = 1% topical, untreated contralateral eye (U), −0.5 hr (pre-treatment)
[14] = 1% topical, untreated contralateral eye (U), −1 hr (pre-treatment)
[15] = 2% topical, drug treated eye (T), 0.5 hr
[16] = 2% topical, drug treated eye (T), 1 hr
[17] = 2% topical, drug treated eye (T), 3 hr
[18] = 2% topical, drug treated eye (T), 5 hr
[19] = 2% topical, drug treated eye (T), −0.5 hr (pre-treatment)
[20] = 2% topical, drug treated eye (T), −1 hr (pre-treatment)
[21] = 2% topical, untreated contralateral eye (U), 0.5 hr
[22] = 2% topical, untreated contralateral eye (U), 1 hr
[23] = 2% topical, untreated contralateral eye (U), 3 hr
[24] = 2% topical, untreated contralateral eye (U), 5 hr
[25] = 2% topical, untreated contralateral eye (U), −0.5 hr (pre-treatment)
[26] = 2% topical, untreated contralateral eye (U), −1 hr (pre-treatment)

Molecule: CC(N)Cc1ccccc1 (single isomer, unassigned; (+)) [(+)-amphetamine, (+)-Amphetamine]
- locomotor stimulant effects, time course (result in words) (Swiss-Webster mice): dose- and time-dependent increase in the distance traversed within 10 minutes following injection

Molecule: CNC[C@H](O)c1ccc(O)c(O)c1 [Epinephrine]
- displacement of bound p-iodoclonidine (α2 adrenergic receptors): easily displaced all bound p-iodoclonidine

Molecule: C[C@H](N)[C@H](O)c1cccc(O)c1 [Metaraminol Bitartrate Salt, USP, metaraminol bitartrate salt, reference compound]
- mydriasis / pupil diameter (result in words) ([1]; 1% or 2% topical, rabbit): produced mydriasis
- Mydriatic Responses, TREATED EYE ([1]; 1% topical): ++ (++ = 2–4 mm change)
- Mydriatic Responses, UNTREATED EYE ([1]; 1% topical): 0
- Pupil Diameter [1, 3]: 9 ± 0.5 mm
- Pupil Diameter [1, 4]: 9 ± 0.5 mm
- Pupil Diameter [1, 5]: 9 ± 0.2 mm
- Pupil Diameter [1, 6]: 9 ± 0.5 mm
- Pupil Diameter [1, 7]: 7 ± 0.5 mm
- Pupil Diameter [1, 8]: 7 ± 0.5 mm
- Pupil Diameter [1, 9]: 7 ± 0.5 mm
- Pupil Diameter [1, 10]: 7 ± 0.5 mm
- Pupil Diameter [1, 11]: 7 ± 0.5 mm
- Pupil Diameter [1, 12]: 7 ± 0.5 mm
- Pupil Diameter [1, 13]: 7 ± 0.5 mm
- Pupil Diameter [1, 14]: 7 ± 0.5 mm
- Pupil Diameter [1, 15]: 10 ± 0.2 mm
- Pupil Diameter [1, 16]: 10 ± 0.2 mm
- Pupil Diameter [1, 17]: 10 ± 0.2 mm
- Pupil Diameter [1, 18]: 10 ± 0.2 mm
- Pupil Diameter [1, 19]: 5 ± 0.2 mm
- Pupil Diameter [1, 20]: 5 ± 0.2 mm
- Pupil Diameter [1, 21]: 10 ± 0.2 mm
- Pupil Diameter [1, 22]: 10 ± 0.2 mm
- Pupil Diameter [1, 23]: 10 ± 0.2 mm
- Pupil Diameter [1, 24]: 10 ± 0.2 mm
- Pupil Diameter [1, 25]: 5 ± 0.2 mm
- Pupil Diameter [1, 26]: 5 ± 0.2 mm
- effect on IOP (result in words) ([2]; 1% or 2% topical, rabbit): accompanying increase in IOP
- IOP [2, 3]: 25 ± 1.2 mmHg
- IOP [2, 4]: 24 ± 1.3 mmHg
- IOP [2, 5]: 21 ± 2.8 mmHg
- IOP [2, 6]: 21 ± 2.7 mmHg
- IOP [2, 7]: 19 ± 1.3 mmHg
- IOP [2, 8]: 21 ± 2.3 mmHg
- IOP [2, 9]: 18 ± 1.7 mmHg
- IOP [2, 10]: 18 ± 1.0 mmHg
- IOP [2, 11]: 19 ± 1.4 mmHg
- IOP [2, 12]: 17 ± 0.8 mmHg
- IOP [2, 13]: 16 ± 1.1 mmHg
- IOP [2, 14]: 18 ± 1.4 mmHg
- IOP [2, 15]: 15 ± 1.1 mmHg
- IOP [2, 16]: 16 ± 3.6 mmHg
- IOP [2, 17]: 14 ± 2.0 mmHg
- IOP [2, 18]: 13 ± 0.8 mmHg
- IOP [2, 19]: 14 ± 0.9 mmHg
- IOP [2, 20]: 15 ± 0.7 mmHg
- IOP [2, 21]: 19 ± 1.1 mmHg
- IOP [2, 22]: 18 ± 0.8 mmHg
- IOP [2, 23]: 19 ± 1.1 mmHg
- IOP [2, 24]: 21 ± 1.6 mmHg
- IOP [2, 25]: 15 ± 0.7 mmHg
- IOP [2, 26]: 17 ± 1.2 mmHg

Molecule: Mephentermine Hemisulfate Salt [reference compound]
- Mydriatic Responses, TREATED EYE ([1]; 1% topical): ++ (++ = 2–4 mm change)
- Mydriatic Responses, UNTREATED EYE ([1]; 1% topical): 0
- Pupil Diameter [1, 3]: 10 ± 0.2 mm
- Pupil Diameter [1, 4]: 10 ± 0.2 mm
- Pupil Diameter [1, 5]: 10 ± 0.2 mm
- Pupil Diameter [1, 6]: 10 ± 0.2 mm
- Pupil Diameter [1, 7]: 7 ± 0.2 mm
- Pupil Diameter [1, 8]: 7 ± 0.2 mm
- Pupil Diameter [1, 9]: 7 ± 0.2 mm
- Pupil Diameter [1, 10]: 7 ± 0.2 mm
- Pupil Diameter [1, 11]: 7 ± 0.2 mm
- Pupil Diameter [1, 12]: 7 ± 0.2 mm
- Pupil Diameter [1, 13]: 7 ± 0.2 mm
- Pupil Diameter [1, 14]: 7 ± 0.2 mm
- Mydriatic Responses, TREATED EYE ([1]; 2% topical): + (+ = 0–2 mm change)
- Mydriatic Responses, UNTREATED EYE ([1]; 2% topical): 0
- Pupil Diameter [1, 15]: 7 ± 0.7 mm
- Pupil Diameter [1, 16]: 8 ± 0.7 mm
- Pupil Diameter [1, 17]: 6 ± 0.4 mm
- Pupil Diameter [1, 18]: 6 ± 0.4 mm
- Pupil Diameter [1, 19]: 6 ± 0.3 mm
- Pupil Diameter [1, 20]: 6 ± 0.3 mm
- Pupil Diameter [1, 21]: 6 ± 0.3 mm
- Pupil Diameter [1, 22]: 6 ± 0.3 mm
- Pupil Diameter [1, 23]: 6 ± 0.3 mm
- Pupil Diameter [1, 24]: 6 ± 0.3 mm
- Pupil Diameter [1, 25]: 6 ± 0.4 mm
- Pupil Diameter [1, 26]: 6 ± 0.4 mm
- IOP [2, 3]: 24 ± 1.0 mmHg
- IOP [2, 4]: 24 ± 0.7 mmHg
- IOP [2, 5]: 22 ± 0.9 mmHg
- IOP [2, 6]: 18 ± 1.6 mmHg
- IOP [2, 7]: 18 ± 1.8 mmHg
- IOP [2, 8]: 19 ± 1.7 mmHg
- IOP [2, 9]: 20 ± 2.1 mmHg
- IOP [2, 10]: 17 ± 1.6 mmHg
- IOP [2, 11]: 20 ± 1.4 mmHg
- IOP [2, 12]: 17 ± 1.5 mmHg
- IOP [2, 13]: 17 ± 1.0 mmHg
- IOP [2, 14]: 17 ± 1.1 mmHg
- IOP [2, 15]: 23 ± 2.2 mmHg
- IOP [2, 16]: 23 ± 2.2 mmHg
- IOP [2, 17]: 21 ± 2.3 mmHg
- IOP [2, 18]: 23 ± 1.5 mmHg
- IOP [2, 19]: 19 ± 2.0 mmHg
- IOP [2, 20]: 21 ± 2.3 mmHg
- IOP [2, 21]: 18 ± 1.6 mmHg
- IOP [2, 22]: 16 ± 1.0 mmHg
- IOP [2, 23]: 18 ± 0.8 mmHg
- IOP [2, 24]: 20 ± 1.7 mmHg
- IOP [2, 25]: 17 ± 2.1 mmHg
- IOP [2, 26]: 18 ± 2.2 mmHg
